Columns and labels:
erythrocytes = test: Haemolysis assay for saponins; details: substantially pure samples
Experimental: Fresh blood from guinea pigs is washed with phosphate buffered saline (PBS) 3 times in a desk-top centrifuge. After resuspension to the original volume the blood is further diluted 10 fold in PBS. • 2. 50 μl of this blood suspension is added to 800 μl of PBS containing two-fold dilutions of surfactant or saponin. • 3. After 8 hours the haemolysis is assessed visually or by measuring the optical density of the supernatant. The presence of a red supernatant, which absorbs light at 570 nm indicates the presence of haemolysis. • 4. The results are expressed as the concentration of the first saponin dilution at which hemolysis no longer occurs.
For the purposes of his invention the saponin adjuvant preparation is haemolytic if it lyses the erythrocytes at a concentration of less than 0.1%. As means of reference, substantially pure samples of QuilA, QS21, QS7.

Lipo-OspA = assay type: in vivo, Balb/c mice; details: 14 days after nasal boost with 5 μg lipo-OspA; 20 μg CpG 1001 and/or 5 μg QS21; compared with PBS
influenza virus = system: influenza virus; set-up: species or system Balb/c mice; details: mouse, in vivo

Row | Compound | haemolytic saponin as defined in this assay (erythrocytes) | intranasal boosting of systemic antibodies to Lipo-OspA (OspA specific IgG and LA2 titres) (Lipo-OspA) | intranasal boosting of IgG or HAI antibodies to Flu strains (influenza virus)
1 | β-escin | haemolytic | – | –
2 | CC1(C)[C@@H](O[C@H]2O[C@H](C(=O)O)[C@@H](O)[C@H](O)[C@H]2O[C@@H]2O[C@H](C(=O)O)[C@@H](O)[C@H](O)[C@H]2O)CC[C@]2(C)[C@H]3C(=O)C=C4[C@@H]5C[C@@](C)(C(=O)O)CC[C@]5(C)CC[C@@]4(C)[C@]3(C)CC[C@@H]12 [glycyrrhizic acid] | non haemolytic | – | –
3 | QS21 | haemolytic | improve significantly | do not improve
4 | C[C@@H]1CC[C@@]2(OC1)O[C@H]1[C@@H](O)[C@H]3[C@@H]4CC[C@H]5C[C@@H](O[C@@H]6O[C@H](CO)[C@H](O[C@@H]7O[C@H](CO)[C@@H](O)[C@H](O[C@@H]8OC[C@@H](O)[C@H](O)[C@H]8O)[C@H]7O[C@@H]7O[C@H](CO)[C@H](O)[C@H](O[C@@H]8O[C@H](CO)[C@@H](O)[C@H](O)[C@H]8O)[C@H]7O)[C@H](O)[C@H]6O)[C@H](O)C[C@]5(C)[C@H]4CC[C@]3(C)[C@H]1[C@@H]2C [Digitonin] | haemolytic | – | –

Source: patent US7399472B2, “Vaccines” (Smithkline Beecham Biologicals, priority 1999, dated 2008)
